Experiments:
[1] = test system: MCF-7 cells; assay: MCF-7 mammary fat pad tumor model: tumor volume and tumor growth inhibition; type: in vivo, NU/j mice; details: inavolisib 25 mg/kg PO QD
Method: (§1) Animals: Female NU/j mice, 6 weeks of age upon delivery, were received and acclimated at 5 mice per cage for a minimum of 7 days. Mice were housed in autoclaved caging with autoclaved water throughout the course of the study. The animals had free access to food (irradiated chow 2920X) and water. The animals were housed in a temperature and humidity-controlled room with a 12-hour light cycle.
Cell Culture: MCF-7 cells were cultured in Dulbecco's Modified Eagle Medium (DMEM) with 10% FBS.
Tumor Cell Implantation: On the day of implantation, cells were washed 1× with phosphate-buffered saline (PBS). Following washing, cells were pelleted (5 min @1000 rpm, RT) and then counted with a hemocytometer. A cell concentration of 5×10^6 per mouse was re-suspended in an appropriate amount of PBS and 1:1 Matrigel (kept on ice until implantation). Forty-eight hours prior to cell implantation, a 17-β estradiol pellet (0.36 mg 60-day slow release pellet) was implanted subcutaneously between the scapulae of each mouse. […]
Tumor Assessment: prior to cell implantation, all animals were ear tagged. Beginning 5 days post cell implantation, tumors were measured two times weekly (length×width) using a wireless Mitutoyo UWAVE-T digital calipers in conjunction with UWAVE-R to record measurements. […] Randomization was determined by tumor volume of all of the mice. […]

[2] = Body weight in MCF-7 tumor-bearing mice; type: in vivo, NU/j mice; details: FIG. 34; compared to vehicle group; Compound 1 8 mg/kg, inavolisib 25 mg/kg
Method: as §1
Inavolisib was administered orally (PO) once per day (QD) at an amount of 25 mg/kg for the duration of the study.

C[C@H](Nc1ccc2c(c1)OCCn1cc(N3C(=O)OC[C@H]3C(F)F)nc1-2)C(N)=O [Inavolisib, inavolisib]
Tumor Growth Inhibition ([1]; Day 25, Compound 1 8 mg/kg SC Q4D): 74%
Tumor Volume on Day 25 ([1]; starting tumor volume 59 mm^3, Compound 1 8 mg/kg SC Q4D, vehicle 469 mm^3): 167 mm^3
Weight loss (body weight change over the study) [2]: increased as compared to the vehicle group

Reference: US20260014194A1, “COMBINATIONS COMPRISING METAP2 INHIBITORS FOR THE TREATMENT OF CANCER” (SynDevRx, Inc., priority 2022, published 2026)
